Results on four compounds are retold here after patent publication US6680323B2, “Dihydropyrimidines and uses thereof” (Synaptic Pharmaceutical Corporation, priority 1998, dated 2004).

In one data set the target is T1, human α1b receptor (Homo sapiens, UniProt P35368).
T1 construct: The entire coding region of α1b (1563 bp); expressed in transfected cells
T1 sequence (P35368 1-520): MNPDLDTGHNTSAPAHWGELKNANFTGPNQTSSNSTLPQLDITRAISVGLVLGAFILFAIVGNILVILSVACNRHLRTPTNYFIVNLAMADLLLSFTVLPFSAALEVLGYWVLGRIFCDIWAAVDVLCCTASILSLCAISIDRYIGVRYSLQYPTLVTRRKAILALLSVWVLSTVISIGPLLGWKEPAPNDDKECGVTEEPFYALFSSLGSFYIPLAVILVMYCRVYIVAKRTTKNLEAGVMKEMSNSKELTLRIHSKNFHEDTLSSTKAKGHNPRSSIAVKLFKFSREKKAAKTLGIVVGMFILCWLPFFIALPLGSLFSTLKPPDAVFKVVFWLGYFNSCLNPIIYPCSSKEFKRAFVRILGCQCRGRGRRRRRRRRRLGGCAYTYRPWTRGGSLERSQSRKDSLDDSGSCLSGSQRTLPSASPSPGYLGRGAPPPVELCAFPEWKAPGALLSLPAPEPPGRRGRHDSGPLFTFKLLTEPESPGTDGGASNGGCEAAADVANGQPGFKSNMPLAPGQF
As to the kind of experiment: Radioligand binding ([3H]prazosin) at cloned human α1b receptor. The following applies: membranes of transfected LM(tk−) cells, [3H]prazosin 0.5 nM; read-out: Binding affinity hα1b. Here is the method:
The activity of compounds at the different human receptors was determined in vitro using cultured cell lines that selectively express the receptor of interest. These cell lines were prepared by transfecting the cloned cDNA or cloned genomic DNA or constructs containing both genomic DNA and cDNA encoding the human α-adrenergic receptors as follows:
α1b Human Adrenergic Receptor
The entire coding region of α1b (1563 bp), including 200 base pairs and 5′ untranslated sequence (5′ UT) and 600 bp of 3′ untranslated sequence (3′ UT), was cloned into the EcoRI site of pCEXV-3 eukaryotic expression vector.
The construct involved ligating the full-length containing EcoRI brainstem cDNA fragment from λ ZapII into the expression vector. Stable cell lines were selected as described above. The cell line used herein was designated L-α1B and was deposited with the American Type Culture Collection, 12301 Parklawn Drive, Rockville, Md. 20852, U.S.A. under the provisions of the Budapest Treaty for the International Recognition of the Deposit of Microorganisms for the Purposes of Patent Procedure. The cell line L-α1B was accorded ATCC Accession No. CR 11139, on Sep. 29, 1992.
Radioligand Binding Assays for α1 Receptors
Transfected cells from culture flasks were scraped into 5 ml of 5 mM Tris-HCl, 5 mM EDTA, pH 7.5, and lysed by sonication. The cell lysates were centrifuged at 1000 rpm for 5 min at 4° C., and the supernatant was centrifuged at 30,000×g for 20 min at 4° C. The pellet was suspended in 50 mM Tris-HCl, 1 mM MgCl2, and 0.1% ascorbic acid at pH 7.5. Binding of the α1 antagonist [^3H]prazosin (0.5 nM, specific activity 76.2 Ci/mmol) to membrane preparations of LM(tk−) cells was done in a final volume of 0.25 ml and incubated at 37° C. for 20 min. Nonspecific binding was determined in the presence of 10 μM phentolamine. The reaction was stopped by filtration through GF/B filters using a cell harvester. Inhibition experiments, routinely consisting of 7 concentrations of the tested compounds, were analyzed using a non-linear regression curve-fitting computer program to obtain Ki values.

The target in another data set is T2, human α2c receptor (Homo sapiens, UniProt P18825).
T2 construct: expressed in transfected cells
T2 sequence (P18825 1-462): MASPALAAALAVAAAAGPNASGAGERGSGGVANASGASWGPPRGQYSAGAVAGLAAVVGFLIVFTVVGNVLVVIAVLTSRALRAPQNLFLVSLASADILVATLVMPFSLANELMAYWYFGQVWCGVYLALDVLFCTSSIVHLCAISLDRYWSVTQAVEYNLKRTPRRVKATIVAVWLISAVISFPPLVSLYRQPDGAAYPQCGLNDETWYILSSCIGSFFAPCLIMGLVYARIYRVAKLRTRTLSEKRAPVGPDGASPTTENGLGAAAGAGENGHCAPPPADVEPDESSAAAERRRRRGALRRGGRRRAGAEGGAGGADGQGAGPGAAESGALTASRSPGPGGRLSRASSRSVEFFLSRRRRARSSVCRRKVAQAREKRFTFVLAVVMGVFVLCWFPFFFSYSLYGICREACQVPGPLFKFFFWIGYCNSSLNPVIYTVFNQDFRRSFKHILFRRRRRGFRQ
The experiment in a line: Competition binding ([3H]rauwolscine) at cloned human α2c receptor. Particulars: transfected LM(tk−) cells, [3H]rauwolscine 0.5 nM; read-out: Binding affinity hα2c. The text has this: (§1) α2 Human Adrenergic Receptors
(§2) To determine the potency of α1 antagonists at the α2 receptors, LM(tk−) cell lines stably transfected with the genes encoding the α2a, α2b, and α2c receptors were used. The cell line expressing the α2a receptor is designated L-α2A, and was deposited on Nov. 6, 1992 under ATCC Accession No. CRL 11180. The cell line expressing the α2b receptor is designated L-NGC-α2B, and was deposited on Oct. 25, 1989 under ATCC Accession No. CRL10275. The cell line expressing the α2c receptor is designated L-α2C, and was deposited on Nov. 6, 1992 under ATCC Accession No. CRL-11181. All the cell lines were deposited with the American Type Culture Collection, 12301 Parklawn Drive, Rockville, Md. 20852, U.S.A. under the provisions of the Budapest Treaty for the International Recognition of the Deposit of Microorganisms for the Purposes of Patent Procedure. Cell lysates were prepared as described above (see Radioligand Binding Assays), and suspended in 25 mM glycylglycine buffer (pH 7.6 at room temperature). Equilibrium competition binding assay were performed using [3H]rauwolscine (0.5 nM), and nonspecific binding was determined by incubation with 10 μM phentolamine. The bound radioligand was separated by filtration through GF/B filters using a cell harvester.

Another data set concerns the target T3, human α2b receptor (Homo sapiens, UniProt P18089).
T3 construct: expressed in transfected cells
T3 sequence (P18089 1-450): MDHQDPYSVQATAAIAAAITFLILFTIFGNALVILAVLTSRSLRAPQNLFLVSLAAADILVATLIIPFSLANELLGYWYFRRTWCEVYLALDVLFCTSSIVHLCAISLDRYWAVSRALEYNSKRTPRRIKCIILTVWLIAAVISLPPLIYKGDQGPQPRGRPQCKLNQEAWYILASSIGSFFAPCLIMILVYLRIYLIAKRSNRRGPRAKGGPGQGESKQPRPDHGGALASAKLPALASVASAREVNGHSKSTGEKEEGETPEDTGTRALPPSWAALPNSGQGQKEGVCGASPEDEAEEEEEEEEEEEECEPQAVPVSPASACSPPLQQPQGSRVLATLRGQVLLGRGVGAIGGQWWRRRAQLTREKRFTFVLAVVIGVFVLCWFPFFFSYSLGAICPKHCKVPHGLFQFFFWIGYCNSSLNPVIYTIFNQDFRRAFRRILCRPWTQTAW
As to the kind of experiment: Competition binding ([3H]rauwolscine) at cloned human α2b receptor. Particulars: transfected LM(tk−) cells, [3H]rauwolscine 0.5 nM; read-out: Binding affinity hα2b.
Excerpt: as §1, §2

In another data set the target is T4, human α2a receptor (Homo sapiens, UniProt P08913).
T4 construct: expressed in transfected cells
T4 sequence (P08913 1-465): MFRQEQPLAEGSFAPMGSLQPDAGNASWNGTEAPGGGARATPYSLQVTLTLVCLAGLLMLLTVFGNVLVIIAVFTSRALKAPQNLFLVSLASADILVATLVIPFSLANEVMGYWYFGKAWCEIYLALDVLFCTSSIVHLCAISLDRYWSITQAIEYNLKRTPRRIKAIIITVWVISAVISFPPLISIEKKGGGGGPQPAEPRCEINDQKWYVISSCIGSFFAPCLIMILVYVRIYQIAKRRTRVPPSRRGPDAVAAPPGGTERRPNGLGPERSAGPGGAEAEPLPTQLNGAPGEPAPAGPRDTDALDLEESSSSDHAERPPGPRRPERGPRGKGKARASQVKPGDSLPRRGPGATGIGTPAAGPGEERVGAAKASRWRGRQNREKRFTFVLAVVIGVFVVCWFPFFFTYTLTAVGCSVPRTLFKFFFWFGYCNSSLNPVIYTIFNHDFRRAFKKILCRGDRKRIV
The experiment in a line: Competition binding ([3H]rauwolscine) at cloned human α2a receptor. The following applies: transfected LM(tk−) cells, [3H]rauwolscine 0.5 nM; read-out: Binding affinity hα2a.
Excerpt: as §1, §2

pKi: −log10 of the molar value. Where a name gives a salt, the structure may show the parent alone. Where only a bound is given, the exact number is not on record here.

As usually defined, the melting point is the temperature, or range, at which the solid turns liquid. Take `COCC1=C(C(=O)OC)[C@H](c2ccc(F)c(F)c2)N(C(=O)NCCC[n+]2ccc(-c3ccccn3)cc2)C(=O)N1` (as salt: chloride) [Compound 3, 4-(2-Pyridyl)-1-{3-[5-carboxymethyl-4-methoxymethyl-2-oxo-6(S)-(3,4-difluorphenyl)-1,2,3,6-tetrahydropyrimidin-1-yl]carboxyaminopropyl}pyridinium chloride]: the melting point was 60 to 85 °C.
For `O=C1OCC2=C1C(c1ccc(F)c(F)c1)N(C(=O)NCCCN1CCC(c3ccccn3)CC1)C(=O)N2` (single isomer, unassigned; (+)) (as salt: hydrochloride) [Compound 8, (+)-1-3-{[4-(3,4-Difluorophenyl)-2,5-dioxo-1,2,5,7-tetrahydro-4H-furo[3,4-d]-pyrimidine-3-carbonyl]amino}-propyl-4-(2-pyridyl)-piperidine], the melting point fell in the range of 90 to 95 °C.
For `COCC1=C(CC(=O)O)C(c2ccc(F)c(F)c2)N(C(=O)NCCC[N+]2([O-])CCC(c3ccccn3)CC2)C(=O)N1` (single isomer, unassigned; (+)) [Compound 4, (+)-4-(2-Pyridyl)-1-{3-[5-carboxymethyl-4-methoxymethyl-2-oxo-6-(3,4-difluorphenyl)-1,2,3,6-tetrahydropyrimidin-1-ylcarbonylamino]propyl}piperidine-1-oxide], the pKi at human α1b receptor was 5.87; on human α2c receptor it was 5.10; on human α2b receptor, 4.77; on human α2a receptor it was 4.66.
For `COC(=O)C1=C(c2ccc(F)c(F)c2)N(C(=O)NCCCN2CCC(c3ccccn3)CC2)C(=O)NC1C(=O)O` (single isomer, unassigned; (+)) [Compound 6, (+)-2-Oxo-3-{N-[4-(2-pyridyl)piperidin-1-yl]propyl}carboxamido-4-(3,4-difluorophenyl)-5-methoxycarbonyl-6-carboxy-1,2,3,6-tetrahydropyrimidine] the same measures were less than 5.70, less than 4.30, 4.42 and less than 4.30.
